Experimental data: patent US20160115540A1, “PRODRUGS AND DRUGS” (Biogen MA Inc., priority 2013, published 2016)
Structures can show the parent of a compound that is named as a salt.

Test system: lymph node
Experiment: Transcriptional profiling, chronic dosing, EAE mice: lymph node
Type: in vivo
Settings: for Number of differentially expressed genes identified: Lymph Node: EAE, Chronic Dosing
Excerpt: EAE induction is generally performed by immunization with brain extracts, CNS proteins (such as myelin basic protein), or peptides from such protein emulsified in an adjuvant such as complete Freund's adjuvant, e.g., as described in Linker et al., Brain. 2011 March 134(Pt3): 678-92. […] FIG. 17 depicts exemplary immunophenotyping panels used to analyze various immune cell populations (e.g., T cells, T regulatory cells, NK cells, B cells, myeloid cells). […] The number of independent mice whose tissues were harvested for transcript profiling studies and whose data passed QC is shown in TABLE 15. Animals were exposed to CO2 and whole blood collected via cardiac puncture. Two 100 μl aliquots of whole blood were collected in 1.5 mL microcentrifuge tubes and snap frozen in liquid nitrogen. Peripheral (liver, spleen, kidney and jejunum) and CNS brain (cerebellum, hippocampus, striatum and cortex) tissues were harvested and snap frozen in liquid nitrogen, with special care taken to collect tissues of similar size and from the same location. All samples were stored at -80° C. until RNA extraction was conducted. For RNA preparation, frozen tissues were placed in 2 mL RNAse-free 96-well blocks with 1.5 mL QIAzol Lysis Reagent (QIAgen) and a 3.2 mm stainless steel bead (BioSpec Products, Bartlesville, Okla.). Tissues were disrupted for four cycles of 45 seconds in a Mini-Beadbeater (Biospec Products). RNA was extracted in chloroform and the aqueous phase was mixed with an equal volume of 70% ethanol. Extracted RNA was applied to RNeasy 96 plates and purified by the spin method according to the manufacturer's protocol (RNeasy 96 Universal Tissue Protocol, QIAgen, Hilden Germany). […] Washing and staining of the hybridized arrays were completed as described in the GeneChip Expression analysis technical manual for HT plate arrays using the Genechip® Array Station (Affymetrix, Santa Clara, Calif.) with modifications as described in […] et al. The processed GeneChip® plate arrays were scanned using GeneTitan scanner (Affymetrix, Santa Clara, Calif.). Affymetrix scans were subject to quality control (QC) measures. These tests included a visual inspection of the distribution of raw signal intensities and an assessment of RNA degradation, relative log expression (RLE), and normalized unscaled standard error (NUSE). All sample scans that passed these QC metrics were included in the analysis. All CEL files were subjected to GC-content-based Robust Multi-array Average (GCRMA) normalization (version 2.20.0) (Irizarry R A, et al. Nucleic Acids Res 2003; 31:e15; Li C, et al. Genome Biol 2001; 2:[…]0032). […] Stat Appl Genet Mol Biol 2004; 3:Article3). […] Springer Science+Business Media 2005). Changes in gene expression were studied by applying a linear modeling approach to fit gene expression levels according to the defined groups of samples (e.g. DMF-, MMF-, and Vehicle-treated animals) and Bayesian posterior error analysis as implemented by Smyth (Smyth G K. Stat Appl Genet Mol Biol 2004; 3:Article3). The comparisons considered included: DMF-vs-MMF, DMF-vs-Vehicle, MMF-vs-Vehicle, and Vehicle-vs-Naïve.

[1] = lymph node, 100DMF-vs-90MMF, 7 h
[2] = lymph node, 100DMF-vs-90MMF, 12 h
[3] = lymph node, 100DMF-vs-Veh, 12 h
[4] = lymph node, 100MMF-vs-Veh, 12 h

## COC(=O)/C=C/C(=O)OC [DMF, dimethyl fumarate]
100 mpk DMF-vs-90 mpk MMF, 7 h after last dosing
  Number of differentially expressed genes identified: Lymph Node: 2
100 mpk DMF-vs-90 mpk MMF, 12 h after last dosing
  Number of differentially expressed genes identified: Lymph Node: 6
100 mpk DMF-vs-Vehicle, 7 h after last dosing
  Number of differentially expressed genes identified: Lymph Node: 14
100 mpk DMF-vs-Vehicle, 12 h after last dosing
  Number of differentially expressed genes identified: Lymph Node: 8
[1]
  FC BC005685 (1426188_PM_s_at): −1.54
  FC Slc10a6 (1428776_PM_at): −1.52
[2]
  FC 1442025_PM_a_at (no gene symbol): 2.64
  FC 1442026_PM_at (no gene symbol): 2.92
  FC Angptl4 (1417130_PM_s_at): 2.93
  FC Cpt1a (1460409_PM_at): 1.56
  FC Klf11 (1437241_PM_at): 1.91
  FC Zbtb16 (1419874_PM_x_at): 2.14
Lymph node, 100DMF-vs-Veh, 7 h
  FC Clec4e (1420330_PM_at): 1.55
  FC Clec4d (1420804_PM_s_at): 1.85
  FC Gdf3 (1449288_PM_at): −1.57
  FC Mmp12 (1449153_PM_at): 3.33
  FC Nqo1 (1423627_PM_at): 2.79
  FC Osgin1 (1424022_PM_at): 1.54
  FC Rnf128 (1449036_PM_at): 1.71
  FC Slc11a1 (1420361_PM_at): 1.57
  FC Srxn1 (1419942_PM_at): 1.98
  FC Srxn1 (1426875_PM_s_at): 1.83
  FC Tnfaip2 (1416273_PM_at): 1.82
  FC Tnfaip2 (1438855_PM_x_at): 1.52
  FC Ugt1a1 /// Ugt1a10 /// Ugt1a2 /// Ugt1a5 /// Ugt1a6a /// Ugt1a6b /// Ugt1a7c /// Ugt1a9 (1424783_PM_a_at): 1.52
  FC Ugt1a1 /// Ugt1a10 /// Ugt1a2 /// Ugt1a5 /// Ugt1a6a /// Ugt1a6b /// Ugt1a7c /// Ugt1a9 (1426261_PM_s_at): 1.62
[3]
  FC 1442025_PM_a_at (no gene symbol): 2.35
  FC 1442026_PM_at (no gene symbol): 2.48
  FC Clec4d (1420804_PM_s_at): 2.19
  FC Gzmk (1422280_PM_at): 1.92
  FC Npas2 (1421037_PM_at): 1.53
  FC Nqo1 (1423627_PM_at): 1.70
  FC Ugt1a1 /// Ugt1a10 /// Ugt1a2 /// Ugt1a5 /// Ugt1a6a /// Ugt1a6b /// Ugt1a7c /// Ugt1a9 (1424783_PM_a_at): 1.56
  FC Zbtb16 (1419874_PM_x_at): 2.07
Lymph node, chronically dosed EAE mice, 12 h after final dosing
  Zbtb16 transcript signal, DMF-treated compared to MMF-treated animals: increased signal

## COC(=O)/C=C/C(=O)O [MMF, monomethyl fumarate]
90 mpk MMF-vs-Vehicle, 7 h after last dosing
  Number of differentially expressed genes identified: Lymph Node: 21
90 mpk MMF-vs-Vehicle, 12 h after last dosing
  Number of differentially expressed genes identified: Lymph Node: 7
Lymph node, 100MMF-vs-Veh, 7 h
  FC BC005685 (1426188_PM_s_at): 1.54
  FC C78662 (1442498_PM_at): 1.68
  FC Clec4e (1420330_PM_at): 2.02
  FC Clec4e (1420331_PM_at): 1.80
  FC Clec4d (1420804_PM_s_at): 2.40
  FC Ctgf (1416953_PM_at): 2.34
  FC Hs3st1 (1423450_PM_a_at): 1.72
  FC Il1f9 1425958_PM_at: 1.86
  FC Mmp12 (1449153_PM_at): 5.16
  FC Nqo1 (1423627_PM_at): 2.59
  FC Osgin1 (1424022_PM_at): 1.50
  FC Pla2g7 (1430700_PM_a_at): 1.67
  FC Rnf128 (1449036_PM_at): 1.81
  FC Slc11a1 (1420361_PM_at): 1.57
  FC Slc40a1 1448566_PM_at: 1.87
  FC Slc40a1 (1417061_PM_at): 1.80
  FC Srxn1 (1419942_PM_at): 1.93
  FC Srxn1 (1426875_PM_s_at): 1.80
  FC Tnfaip2 (1416273_PM_at): 1.86
  FC Tnfaip2 (1438855_PM_x_at): 1.55
  FC Ugt1a1 /// Ugt1a10 /// Ugt1a2 /// Ugt1a5 /// Ugt1a6a /// Ugt1a6b /// Ugt1a7c /// Ugt1a9 (1426261_PM_s_at): 1.55
[4]
  FC Ccl3 (1419561_PM_at): 2.22
  FC Clec4d (1420804_PM_s_at): 2.43
  FC Kcne3 (1418499_PM_a_at): 1.56
  FC Mmp9 (1416298_PM_at): 1.82
  FC Mmp12 (1449153_PM_at): 3.95
  FC Npas2 (1421037_PM_at): 1.56
  FC Tnfaip2 (1416273_PM_at): 1.54
